Assay [1] relates to HeLa cells. The experiment in a line: TMT global protein expression analysis in HeLa cells (whole proteome). The class given is cell-based, human. As for the experimental part: (§1) Quantitative Mass Spectrometry. […] Two biological replicate samples were prepared for each treatment condition. Cells were washed with cold PBS and lysed using the SDS lysis buffer. Protein concentrations were determined by the BCA assay (Thermo Fisher Scientific). For each sample, 500 μg of protein was used for the subsequent TMT experiments^34.
For the TMT experiments, proteins were reduced with 2 mM DTT for 10 min and alkylated with 50 mM iodoacetamide for 30 min in dark. Proteins were then extracted using methanol-chloroform precipitation. […] Proteins were subsequently digested with trypsin (Thermo Fisher Scientific, at 1:100 enzyme/protein ratio) overnight at RT. Peptides were desalted with Oasis HLB cartridges (Waters) and resuspended in 200 mM HEPES (pH 8.5) to a final concentration of […]. For each sample, 100 μg of peptides were reacted with the corresponding amine-based TMT six-plex reagents (Thermo Fisher Scientific) for 1 hour. The reactions were quenched with 5% hydroxylamine solution and were combined.
Samples were desalted and fractioned by bRPLC (basic pH reversed phase HPLC) on a ZORBAX 300 Extend-C18 column (Narrow Bore RR 2.1 mm×100 mm, 3.5 μm particle size, 300 Å pore size). Buffer A is (10 mM Ammonium Formate in H2O, pH 10.0). Gradient was developed at a flow rate of 0.2 mL/min from 0% to 70% buffer B (1 mM Ammonium Formate, pH 10.0, 90% ACN). […] Samples were then analyzed on an Orbitrap Elite mass spectrometer (Thermo Fisher Scientific) using a top 15 HCD (higher-energy collisional dissociation) method.
(§2) The maximum intensity of each reporter ion was extracted. For each reporter ion channel, the observed signal-to-noise ratio was summed across all quantified proteins and was normalized.

A further assay concerns the target PARP2 (Homo sapiens, UniProt Q9UGN5). The settings on record: HeLa cells, iRucaparib 5 μM, 24 hours. On the procedure: as §1
(§3) For the TMT experiments, proteins were reduced with 2 mM DTT for 10 min and alkylated with 50 mM iodoacetamide for 30 min in dark. Proteins were then extracted using methanol-chloroform precipitation. Protein pellets were dissolved in 400 μL 8 M Urea buffer (8 M urea, 50 mM Tris-HCl, 10 mM EDTA, pH 7.5) and were digested by Lys-C (Wako, at a 1:100 enzyme/protein ratio) for 2 hours at RT. The urea concentration was then reduced to 2 M using freshly made 100 mM ammonium bicarbonate solution. […]
(§4) Samples were desalted and fractioned by bRPLC (basic pH reversed phase HPLC) on a ZORBAX 300 Extend-C18 column (Narrow Bore RR 2.1 mm×100 mm, 3.5 μm particle size, 300 Å pore size). […] Samples were then analyzed on an Orbitrap Elite mass spectrometer (Thermo Fisher Scientific) using a top 15 HCD (higher-energy collisional dissociation) method.
as §2

A further assay addresses ZFP91 (Homo sapiens, UniProt Q96JP5+Q96SW2). The settings on record: HeLa cells, 5 μM, 24 hours. On the procedure: as §1, §3, §4, §2
For assay [2], the system named is HeLa cells. The assay can be described thus: Cell Viability Assay, HeLa cells with MMS (CellTiter-Glo). The class given is cell-based, human. Conditions: 10 μM, 72 hours. As for the experimental part:
Cell Viability Assay. HeLa cells were seeded in 96 well plates with a density of 2,000 cells/well. […] Cell viability was determined using a CellTiter-Glo luminescence kit (Promega). Briefly, cells were balanced for 30 min at RT. One hundred microliters of the CellTiter-Glo reagent was added into each well and the cells were incubated for 10 min. The luminescence was measured using a Synergy microplate reader (Bio-Tek). The ATP level in untreated cells was defined as 100%. The viability of the treated cells was defined as the percentage of the ATP level in treated cells, compared to that in the untreated cells.
On the technique in general: Cellular ATP, detected with luciferase, serves as a proxy for viable cell number.

Assay [3] relates to primary rat cardiomyocytes. The assay can be described thus: ATP measurement in primary rat cardiomyocytes after MMS (CellTiter-Glo). Type of assay: cell-based. The settings on record: 5 μM 24 hours pretreatment, MMS 0.01% 9 hours. On the procedure:
ATP and NAD^+ measurement. ATP levels were measured by a luminescence assay using the CellTiter-Glo luminescent kit (Promega). […] The cells were balanced for 30 min at RT. One hundred microliters of the CellTiter-Glo reagent was added into each well and incubated for 10 min. ATP levels were determined according the manufacturer's instruction. NAD^+ levels were assayed using an NAD/NADH quantification kit (Sigma). […] Approximately 2×10^5 cells were washed with 1 mL cold PBS and lysed in 400 μl of the extraction buffer. […] The samples were vortexed for 15 sec and centrifuged at 13,000 g for 10 min to remove the insoluble materials. NAD^+ was quantified according to the manufacturer's instruction (Sigma). Fifty microliters of the extracts were used in the NAD^+ assay, and the values were normalized by the amount of protein in each sample.

Assay [4] deals with T1, PARP1 (Homo sapiens, UniProt P09874). The assay can be described thus: Cycloheximide treatment, PARP1 stability in HeLa cells. On the set-up: host or cells: HeLa. Type of assay: cell-based. Conditions: iRucaparib 5 μM 12 hours pre-treatment, cycloheximide 10 μg/ml. On the procedure:
Cycloheximide treatment. HeLa cells (1.5×10^6) were plated in a 60 mm dish, which were allowed to adhere, and were cultured overnight. […] At the indicated time points, cells were washed with cold PBS, and were lysed with the SDS lysis buffer. PARP1 expression was determined by immunoblotting assays.

The target in assay [5] is T1, PARP1. The assay can be described thus: PARP1 trapping in HeLa cells (subcellular fractionation, chromatin-bound fraction). Type of assay: cell-based. On the set-up: host or cells: HeLa. As for the experimental part: Subcellular Proteins Extraction. […] The cytosolic proteins were isolated by incubating the cells with the CEB buffer for 10 min at 4° C., and centrifuged at 500 g for 5 min. The membrane proteins were isolated by incubating the pellet from previous step with the MEB buffer for 10 min at 4° C., and centrifuged at 3000 g for 5 min. The soluble nuclear proteins were isolated by incubating the pellet from previous step with the NEB buffer for 30 min at 4° C., and centrifuged at 5000 g for 5 min. The chromatin bound proteins were isolated by incubating the pellet from previous step with the NEB buffer supplemented with nuclease for 15 min at RT and centrifuged at 16000 g for 5 min. Protein concentrations were determined by the BCA assay kit.

Each structure is given as a SMILES string.

The values below come from patent US20220098196A1, “TRAPPING-FREE PARP INHIBITORS” (The Board of Regents of the University of Texas System, priority 2019, published 2022).

T1 sequence (P09874 whole entry): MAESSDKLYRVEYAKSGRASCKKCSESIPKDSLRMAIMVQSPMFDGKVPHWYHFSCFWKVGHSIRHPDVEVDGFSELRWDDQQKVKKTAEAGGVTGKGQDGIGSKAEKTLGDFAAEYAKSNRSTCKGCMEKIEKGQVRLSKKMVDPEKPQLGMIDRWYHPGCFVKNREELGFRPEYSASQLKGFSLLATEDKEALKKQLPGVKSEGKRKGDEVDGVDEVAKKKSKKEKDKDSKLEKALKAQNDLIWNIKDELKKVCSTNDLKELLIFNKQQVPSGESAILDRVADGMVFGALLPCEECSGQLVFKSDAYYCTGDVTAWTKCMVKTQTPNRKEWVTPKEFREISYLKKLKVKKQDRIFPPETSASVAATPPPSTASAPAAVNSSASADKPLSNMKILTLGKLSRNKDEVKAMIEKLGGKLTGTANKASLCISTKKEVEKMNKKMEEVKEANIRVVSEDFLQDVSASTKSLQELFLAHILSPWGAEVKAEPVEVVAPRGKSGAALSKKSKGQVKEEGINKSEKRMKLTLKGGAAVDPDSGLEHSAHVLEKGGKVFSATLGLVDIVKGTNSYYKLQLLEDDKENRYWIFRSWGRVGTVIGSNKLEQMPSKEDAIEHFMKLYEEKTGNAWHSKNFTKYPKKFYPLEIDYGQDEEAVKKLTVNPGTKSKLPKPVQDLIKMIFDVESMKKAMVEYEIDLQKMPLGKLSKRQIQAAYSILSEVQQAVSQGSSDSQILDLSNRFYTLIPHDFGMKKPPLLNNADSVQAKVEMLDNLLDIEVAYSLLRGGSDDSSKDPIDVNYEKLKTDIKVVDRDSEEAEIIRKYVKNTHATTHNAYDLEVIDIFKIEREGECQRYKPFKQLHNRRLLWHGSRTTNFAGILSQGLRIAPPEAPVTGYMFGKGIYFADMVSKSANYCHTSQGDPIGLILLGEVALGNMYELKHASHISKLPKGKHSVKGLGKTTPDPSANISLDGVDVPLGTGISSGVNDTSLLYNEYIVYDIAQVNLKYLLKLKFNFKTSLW
Sequence of PARP2 (Q9UGN5 whole entry): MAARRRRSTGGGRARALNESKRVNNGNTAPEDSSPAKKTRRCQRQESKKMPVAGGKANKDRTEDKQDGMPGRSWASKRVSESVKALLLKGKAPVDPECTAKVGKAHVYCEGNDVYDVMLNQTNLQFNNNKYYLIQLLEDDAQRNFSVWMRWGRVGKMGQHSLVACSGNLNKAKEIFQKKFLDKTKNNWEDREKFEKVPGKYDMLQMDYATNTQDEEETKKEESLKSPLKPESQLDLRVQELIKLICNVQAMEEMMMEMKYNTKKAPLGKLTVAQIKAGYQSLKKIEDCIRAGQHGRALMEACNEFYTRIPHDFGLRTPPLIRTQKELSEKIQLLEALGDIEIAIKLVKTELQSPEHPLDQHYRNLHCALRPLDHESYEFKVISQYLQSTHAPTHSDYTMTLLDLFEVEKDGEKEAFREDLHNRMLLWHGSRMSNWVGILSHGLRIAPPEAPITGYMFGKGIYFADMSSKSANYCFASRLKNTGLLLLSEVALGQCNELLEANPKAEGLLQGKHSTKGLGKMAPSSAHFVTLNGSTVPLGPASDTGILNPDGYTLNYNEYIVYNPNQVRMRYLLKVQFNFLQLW
Sequence of ZFP91 (Q16531 2-1140): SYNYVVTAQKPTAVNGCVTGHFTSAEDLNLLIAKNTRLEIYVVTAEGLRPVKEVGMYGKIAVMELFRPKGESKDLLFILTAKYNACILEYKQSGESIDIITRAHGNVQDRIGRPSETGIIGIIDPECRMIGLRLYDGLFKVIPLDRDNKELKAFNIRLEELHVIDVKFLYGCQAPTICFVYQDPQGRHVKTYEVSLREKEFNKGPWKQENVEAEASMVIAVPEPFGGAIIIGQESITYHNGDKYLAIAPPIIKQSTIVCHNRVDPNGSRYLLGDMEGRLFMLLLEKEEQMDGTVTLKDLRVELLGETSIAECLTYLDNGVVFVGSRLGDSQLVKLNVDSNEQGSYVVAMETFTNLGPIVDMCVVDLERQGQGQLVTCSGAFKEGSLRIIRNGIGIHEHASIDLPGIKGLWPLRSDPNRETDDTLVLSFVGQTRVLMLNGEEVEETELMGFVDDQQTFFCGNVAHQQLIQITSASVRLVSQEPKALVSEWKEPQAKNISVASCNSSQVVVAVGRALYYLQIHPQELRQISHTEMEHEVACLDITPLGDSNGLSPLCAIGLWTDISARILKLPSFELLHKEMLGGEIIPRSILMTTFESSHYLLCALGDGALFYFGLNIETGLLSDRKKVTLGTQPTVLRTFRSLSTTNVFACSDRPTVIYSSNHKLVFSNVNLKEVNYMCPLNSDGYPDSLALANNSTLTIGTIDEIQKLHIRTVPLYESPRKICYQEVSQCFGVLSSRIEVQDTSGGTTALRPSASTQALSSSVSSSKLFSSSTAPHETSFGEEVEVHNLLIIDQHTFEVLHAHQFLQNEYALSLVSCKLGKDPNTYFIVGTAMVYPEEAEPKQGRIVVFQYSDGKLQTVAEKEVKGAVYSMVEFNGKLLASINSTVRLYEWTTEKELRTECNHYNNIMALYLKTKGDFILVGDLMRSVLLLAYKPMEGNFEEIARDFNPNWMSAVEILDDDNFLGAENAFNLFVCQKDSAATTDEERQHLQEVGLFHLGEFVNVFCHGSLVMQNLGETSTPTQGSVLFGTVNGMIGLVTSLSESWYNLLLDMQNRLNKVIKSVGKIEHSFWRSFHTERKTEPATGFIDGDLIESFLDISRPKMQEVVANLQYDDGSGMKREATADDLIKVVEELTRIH
Sequence of ZFP91 (Q96SW2 whole entry): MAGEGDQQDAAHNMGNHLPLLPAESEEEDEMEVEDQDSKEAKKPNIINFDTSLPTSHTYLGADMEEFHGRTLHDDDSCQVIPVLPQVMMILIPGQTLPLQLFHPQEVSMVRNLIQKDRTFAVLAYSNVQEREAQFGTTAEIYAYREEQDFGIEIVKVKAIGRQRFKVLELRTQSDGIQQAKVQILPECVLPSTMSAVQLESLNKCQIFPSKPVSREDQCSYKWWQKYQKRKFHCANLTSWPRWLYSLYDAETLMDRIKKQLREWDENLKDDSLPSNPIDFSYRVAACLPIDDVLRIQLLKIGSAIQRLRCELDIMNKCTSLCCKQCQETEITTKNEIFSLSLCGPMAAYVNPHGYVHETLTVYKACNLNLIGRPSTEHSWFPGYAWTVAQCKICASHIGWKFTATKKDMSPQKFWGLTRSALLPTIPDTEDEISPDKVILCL
Sequence of ZFP91 (Q96JP5 2-570): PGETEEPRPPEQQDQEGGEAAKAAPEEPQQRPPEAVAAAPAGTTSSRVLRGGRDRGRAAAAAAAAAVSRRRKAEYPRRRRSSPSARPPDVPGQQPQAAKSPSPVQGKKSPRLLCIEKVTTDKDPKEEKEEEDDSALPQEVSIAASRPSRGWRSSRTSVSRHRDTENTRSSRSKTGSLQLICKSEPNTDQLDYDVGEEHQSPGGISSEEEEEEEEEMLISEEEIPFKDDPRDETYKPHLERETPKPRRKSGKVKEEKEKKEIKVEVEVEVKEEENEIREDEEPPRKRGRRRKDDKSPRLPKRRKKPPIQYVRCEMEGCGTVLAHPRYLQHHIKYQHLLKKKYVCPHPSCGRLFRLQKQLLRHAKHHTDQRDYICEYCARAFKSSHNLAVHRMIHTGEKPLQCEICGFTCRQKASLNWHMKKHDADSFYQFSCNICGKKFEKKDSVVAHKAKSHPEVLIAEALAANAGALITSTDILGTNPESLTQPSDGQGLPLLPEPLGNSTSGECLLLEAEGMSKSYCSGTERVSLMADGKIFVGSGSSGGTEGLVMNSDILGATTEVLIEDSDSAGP

Take `CN(CCCCc1cn(CCOCCOCCOCCNc2cccc3c2C(=O)N(C2CCC(=O)NC2=O)C3=O)nn1)Cc1ccc(-c2[nH]c3cc(F)cc4c3c2CCNC4=O)cc1` (stereo not shown) [iRucaparib, Rucaparib-Triazole-PEG3-Pomalidomide]: the “proteins with 2-fold decrease (potential pomalidomide-induced degradation targets)” value with HeLa cells [1] (DMSO vs. iRucaparib (5 μM) plus Rucaparib (1 μM), 24 hours) was “UBBP4 and ZFP91”. Moreover, the “number of proteins with abundance decreased by more than 2-fold” value in the assay on HeLa cells [1] (iRucaparib 5 μM 24 hours vs DMSO, 7,437 quantified proteins) was “five”. Also, the “downregulation of other PARPs (PARP16, PARP14, PARP4, PARP12, PARP9, TNKS1)” value in the assay with HeLa cells [1] (iRucaparib 5 μM, 24 hours) was “none of the other PARPs exhibited significant downregulation”. The PARP2 decrease result on PARP2 is “about 30%”. Moreover, the “ZFP91 Log 2(iRucaparib/DMSO) ratio” value on ZFP91 is given as −2.09. In addition, the “cell death in combination with MMS, compared to MMS alone” value in the assay on HeLa cells [2] is “only resulted in a moderate increase in cell death compared to MMS alone”. Further, the “rescue of MMS-lowered ATP abundances” value in assay [3] is listed as “could be rescued”. The “start of noticeable PARP1 degradation under CHX treatment” value at PARP1 [4] was 8 h. Besides, at PARP1 [5] (5 μM 24 hours, then MMS 0.01% 2 hours), the “PARP1 trapping on chromatin (chromatin-bound fraction)” value is on record as “undetectable in the chromatin-bound fraction”. Moreover, at PARP1 [5] (5 μM for all compounds, MMS 0.01%), the “potency in PARP1 trapping (rank order)” value is recorded as “even lower amount of trapped PARP1 compared to the least potent PARP1-trapper, Veliparib”.
